From US10768157B2, “Materials and methods for the detection of trace amounts of substances in biological and environmental samples” (THE FLORIDA INTERNATIONAL UNIVERSITY BOARD OF TRUSTEES, priority 2015, dated 2020)
Read-outs that look alike come from different tables or passages of the source.

Columns and labels:
[1] = Selectivity study of CAP-imprinted sol-gel MIP vs sol-gel NIP in MIPSPE column (imprinting factor, selectivity coefficient), HPLC-UV; assay type: binding; conditions: for Selectivity Coefficient (SC): SC=IF CAP/IF other analyte, untreated raw milk; for Imprinting Factor (IF): extraction from untreated raw milk, sol-gel MIP vs NIP
From the text: To establish the selectivity of a sol-gel MIP for a particular analyte, a non-imprinted polymer (sol-gel NIP) is synthesized in the same way as sol-gel MIP but in the absence of the template.
The IF reflects the tendency of the MIP to selectively recognize and bind the template. Competitive adsorption of MIP and NIP for CAP was investigated in a MIPSPE column system. The IF and the selectivity coefficient (SC) are indicators of the adsorption affinity of recognition sites to the imprinted CAP.
The selectivity of sol-gel MIP particles for CAP was studied. For this purpose, 30 mg of sol-gel MIP or sol-gel NIP particles were packed in SPE cartridges. Aqueous sample solutions containing 10 ng/mL CAP was passed through the SPE cartridges holding imprinted or non-imprinted particles at a flow rate of 1 mL/min by the aid of a vacuum system. Elution of the extracted chloramphenicol was performed using methanol and the concentration of chloramphenicol was determined by the HPLC-UV method.
Imprinting factor (IF) of sol-gel MIP particles was determined by the following equation: IF=Kmip/Knip where Kmip and Knip are the partition coefficient of analyte for sol-gel MIP and sol-gel NIP, respectively, which are determined by K=Cb/Cu where Cb is the amount of CAP bound by the sol-gel MIP or sol-gel NIP and Cu is the concentration of free chloramphenicol that remained in the solution.
Selectivity coefficient (SC) was calculated by the following equation: SC=IFCAP/IFother_analyte

[2] = Maximum adsorption capacity of the sol-gel molecularly imprinted sorbent (six sulfa drugs); assay type: binding; conditions: 30 mg MIP, mixture of 6 sulfa drugs 10-1000 mg/L
Procedure: In order to calculate the sorption capacity at equilibrium a SPE cartridge packed with 30 mg of MIP particles was used. Experiments under optimum conditions were carried out sequentially on the same SPE cartridge. In each subsequent test, the initial concentration was increased in a range 10-1000 ng μL^-1 and the final concentration was determined by HPLC-DAD. The amount of adsorbed (mg/g) was calculated by using the formula reported by Vanderborght and Van […]:00002} Were Ci is the initial concentration (mg/L), Ce is the equilibrium concentration (mg/L), V is the volume (L) and m is the mass (g) of the adsorbent. […] The final Ce concentrations were calculated on HPLC. The maximum capacity (Q, mg/g) for each of the six compounds was determined with the above equation. The results are represented in FIG. 12.

[3] = Selectivity: imprinting factor of multi-template sol-gel MIP vs NIP; assay type: binding; conditions: extraction from protein precipitated milk
Procedure: The selectivity of MIP particles for the six sulfonamides was tested. For these experiments were used SPE cartridges packed with 30 mg of MIP and NIP particles respectively. Standard solutions containing 5 ng μL^−1 were passed through the SPE cartridges by holding imprinted or non-imprinted particles at a flow rate of 1 mL/min by the aid of a vacuum system. Several antibiotics have similar structure to the sulfonamides as well as antibiotics with different structure and functional groups were studied (chloramphenicol, thiamphenicol, florphenicol, flumequine, sulfisoxazole, sulfamethoxazole, sulfadimethoxine). The extraction on each antibiotic based on the optimum conditions and the extracted antibiotics were determined by the HPLC system. Imprinting factor (IF) of MIP particles was determined by the following equation: […] Capacity Studies […] So, SPE was prepared for MIP and NIP. Imprinting factor (IF), which is an indicators, express the adsorption affinity of recognition sites to the imprinted sulfonamides. Table 12 summarizes the IF values for the examined sulfonamides when extraction was carried out from protein precipitated milk.

[4] = Stability of CAP standard solutions; assay type: physicochemical
[5] = Retention (sorption) capacity of the CAP-imprinted sol-gel sorbent; assay type: binding; conditions: 30 mg polymer saturated with 100 mg/L CAP solution
Procedure: To determine the retention capacity (or sorption capacity) of the sol-gel derived CAP-imprinted polymer (maximum amount of the template retained by 1 g of MIP), 30 mg of polymer were saturated with CAP by passing several 5.0 mL aliquots of 100 mg/L CAP solution.

[6] = cited from earlier work
[7] = Honey, Magnetic SPE, LC-MS/MS (ref a)

Row | Molecule | Imprinting Factor (IF) [1] | Adsorption Capacity, Q [2] | Imprinting Factor (IF) [3] | further results
1 | CS(=O)(=O)c1ccc([C@@H](O)[C@@H](CO)NC(=O)C(Cl)Cl)cc1 [THF, thiamphenicol] | 1.9 |  |  | Selectivity Coefficient (SC) [1]: 2.6
2 | Nc1ccc(S(=O)(=O)Nc2nccs2)cc1 [Sulfathiazole] |  | 9.8 mg/g | 3.90 | 
3 | Chloramphenicol [CAP] | 5 |  |  | Stability of working standard solutions ([4]; 0.05-20 ng/μL in water, refrigerated): stable for the same period of time; Stability of stock solution ([4]; 100 mg/L in water, kept at 4° C.): at least 3 months; Retention capacity / adsorption capacity of CAP [5]: 23 mg/g; Retention capacity / adsorption capacity of CAP ([5]; listed as chloramphenicol): 23.0 mg/g; Imprinting Factor ([6]; Honey, MISPE, HPLC-UV (ref f)): 2.2; Adsorption Capacity [6, 7]: 5.53 mg/g; Imprinting Factor [6, 7]: 1.375; Imprinting Factor ([6]; Honey/Urine, MISPE, LC-MS/MS (ref d)): 2.43; Adsorption Capacity ([6]; Milk, MISPE, HPLC-UV (ref e)): 2.22 mg/g; Imprinting Factor ([6]; Milk, MISPE, HPLC-UV (ref e)): 1.38; Imprinting factor (IF), maximum ([1]; CAP, protein precipitated milk, MIP relative to NIP): 9.7
4 | Cc1ccnc(NS(=O)(=O)c2ccc(N)cc2)n1 [Sulfamerazine] |  | 3.7 mg/g | 1.13 | 
5 | Nc1ccc(S(=O)(=O)Nc2ncccn2)cc1 [Sulfadiazine] |  | 4.2 mg/g | 1.70 | 
6 | Sulfamethizole |  |  | 4.52 | 
7 | florfenicol [FFC] | 1.8 |  |  | Selectivity Coefficient (SC) [1]: 2.8
8 | CC(=O)NS(=O)(=O)c1ccc(N)cc1 [Sulfacetamide] |  | 5.1 mg/g | 2.70 | 
9 | Nc1ccc(S(N)(=O)=O)cc1 [Sulfanilamide] |  |  | 1.56 | 
